Data: patent US20230331673A1, “COMPOSITION OF COMPOUNDS THAT MODULATE CELL METABOLISM AND METHODS OF USE” (CRESCENTA BIOSCIENCES, priority 2020, published 2023)

system: differentiated 3T3-L1 mouse adipocyte cells; assay: Adipocyte glucose consumption in differentiated 3T3-L1 mouse adipocyte cells (loss of glucose from medium, colorimetric); format: cell-based; details: compound 10 μM, 22 to 24 hours, differentiated 3T3-L1 adipocytes, compound/DMSO, read-out: Glucose consumption (fold change) Mean
Procedure: Activity of compounds on adipocyte glucose consumption was tested in differentiated 3T3-L1 mouse adipocyte cells. 3T3-L1 preadipocytes (ATCC) were routinely cultured in a growth medium composed of DMEM high-glucose (Sigma), 10% FBS (Gibco), 10 U/ml penicillin and 10 μg/ml streptomycin (P/S; Gibco). To induce adipogenic differentiation, a confluent layer of 3T3-L1 cells were incubated with the growth medium containing 2 μM rosiglitazone, 1 μM dexamethasone, 500 μM IBMX, and 1 μg/ml insulin (Sigma). Forty-eight (48) hours later (on day 2) and on days 4 and 6, medium of the cells was replaced with fresh medium containing 1 μg/ml insulin. On days 8 and 10, the medium was refreshed with regular growth medium and addition of insulin was omitted. On day 11 or 12, medium of the cells were replaced with fresh medium containing either the indicated compounds (10 μM) or the vehicle in which the compounds were dissolved (DMSO). The final concentration of DMSO was 0.1% (v/v). Growth medium containing 0.1% DMSO was incubated in culture wells containing no cells and used as control. Twenty-two to 24 hours later, medium was harvested and subjected to centrifugation at 10,000 g for 5 min. Glucose concentration in the supernatants was determined using a colorimetric assay (Glucose Assay Kit I, Eton Biosciences). Glucose consumption in compound and vehicle treated cells was measured as loss of glucose from the culture medium and represented as mean fold change (compound/DMSO) t standard deviation (SD).

Going from `CCCCC1CCCc2c(n(Cc3cccc(OC)c3)c3c(C(=O)O)cccc23)C1` (centres unmarked) [7-butyl-5-[(3-methoxyphenyl)methyl]-5H,6H,7H,8H,9H,10H-cyclohepta[b]indole-4-carboxylic acid] to `CCCCC1CCCc2c(n(Cc3cccc(C)c3)c3c(C(=O)O)cccc23)C1` (centres unmarked) [7-butyl-5-[(3-methylphenyl)methyl]-5H,6H,7H,8H,9H,10H-cyclohepta[b]indole-4-carboxylic acid], the fold induction at 10 µM rises from 1.23 to 1.32.

Going from `CCCCC1CCCc2c(n(Cc3ccc(C(N)=O)cc3)c3c(C(=O)O)cccc23)C1` (centres unmarked) [7-butyl-5-[(4-carbamoylphenyl)methyl]-5H,6H,7H,8H,9H,10H-cyclohepta[b]indole-4-carboxylic acid] to `CCCCC1CCCc2c(n(Cc3ccc(C)cc3)c3c(C(=O)O)cccc23)C1` (centres unmarked) [7-butyl-5-[(4-methylphenyl)methyl]-5H,6H,7H,8H,9H,10H-cyclohepta[b]indole-4-carboxylic acid], the fold induction at 10 µM rises from 1.13 to 1.27.

Going from `CCCCC1CCCc2c(n(Cc3cccnc3)c3c(C(=O)O)cccc23)C1` (centres unmarked) [7-butyl-5-[(pyridin-3-yl)methyl]-5H,6H,7H,8H,9H,10H-cyclohepta[b]indole-4-carboxylic acid] to `CCCCCCC1CCCc2c(n(Cc3cccnc3)c3c(C(=O)O)cccc23)C1` (centres unmarked) [7-hexyl-5-[(pyridin-3-yl)methyl]-5H,6H,7H,8H,9H,10H-cyclohepta[b]indole-4-carboxylic acid], the fold induction at 10 µM falls from 1.21 to 1.14.

First: CCCCCCC1CCCc2c(n(Cc3ccnc(OC)c3)c3c(C(=O)O)cccc23)C1 (centres unmarked) [7-hexyl-5-[(2-methoxypyridin-4-yl)methyl]-5H,6H,7H,8H,9H,10H-cyclohepta[b]indole-4-carboxylic acid]
Second: CCCCCCC1CCCc2c(n(Cc3cccc(C)c3)c3c(C(=O)O)cccc23)C1 (centres unmarked) [7-hexyl-5-[(3-methylphenyl)methyl]-5H,6H,7H,8H,9H,10H-cyclohepta[b]indole-4-carboxylic acid]
The fold induction at 10 µM of the first is lower: 1.12 for the first, 1.13 for the second.

Compared with `CCCCCCC1CCCc2c(n(Cc3ccccc3C)c3c(C(=O)O)cccc23)C1` (centres unmarked) [7-hexyl-5-[(2-methylphenyl)methyl]-5H,6H,7H,8H,9H,10H-cyclohepta[b]indole-4-carboxylic acid], `CCCCCCC1CCc2c(n(Cc3ccccc3F)c3c(C(=O)O)cccc23)C1` (centres unmarked) [9-[(2-fluorophenyl)methyl]-2-hexyl-2,3,4,9-tetrahydro-1H-carbazole-8-carboxylic acid] is higher in fold induction at 10 µM: 1 for the first, 1.24 for the second.

Compared with `CCCCCCC1CCCc2c(n(Cc3ccc(C)cc3)c3c(C(=O)O)cccc23)C1` (centres unmarked) [7-hexyl-5-[(4-methylphenyl)methyl]-5H,6H,7H,8H,9H,10H-cyclohepta[b]indole-4-carboxylic acid], `CCCCCCC1CCc2c(n(Cc3cccc(C#N)c3)c3c(C(=O)O)cccc23)C1` (centres unmarked) [9-[(3-cyanophenyl)methyl]-2-hexyl-2,3,4,9-tetrahydro-1H-carbazole-8-carboxylic acid] is higher in fold induction at 10 µM: 1.05 for the first, 1.16 for the second.

Going from `CCCCCCC1CCc2c(n(Cc3ccccc3C#N)c3c(C(=O)O)cccc23)C1` (centres unmarked) [9-[(2-cyanophenyl)methyl]-2-hexyl-2,3,4,9-tetrahydro-1H-carbazole-8-carboxylic acid] to `CCCCCC1CCc2c(n(Cc3cccc(C#N)c3)c3c(C(=O)O)cccc23)C1` (centres unmarked) [9-[(3-cyanophenyl)methyl]-2-pentyl-2,3,4,9-tetrahydro-1H-carbazole-8-carboxylic acid], the fold induction at 10 µM rises from 1.13 to 1.34.

Going from `CCCCCOC1CCCc2c1n(Cc1cccc(C(N)=O)c1)c1c(C(=O)O)cccc21` (centres unmarked) [9-[(3-carbamoylphenyl)methyl]-1-(pentyloxy)-2,3,4,9-tetrahydro-1H-carbazole-8-carboxylic acid] to `CCCOC1CCCc2c1n(Cc1cccc(C(N)=O)c1)c1c(C(=O)O)cccc21` (centres unmarked) [9-[(3-carbamoylphenyl)methyl]-1-propoxy-2,3,4,9-tetrahydro-1H-carbazole-8-carboxylic acid], the fold induction at 10 µM falls from 1.09 to 1.03.

First: CCC1CCCc2c1n(Cc1cccc(C(N)=O)c1)c1c(C(=O)O)cccc21 (centres unmarked) [9-[(3-carbamoylphenyl)methyl]-1-ethyl-2,3,4,9-tetrahydro-1H-carbazole-8-carboxylic acid]
Second: CCC1CCCc2c1n(Cc1cccc(C(=O)O)c1)c1c(C(=O)O)cccc21 (centres unmarked) [9-[(3-carboxyphenyl)methyl]-1-ethyl-2,3,4,9-tetrahydro-1H-carbazole-8-carboxylic acid]
The fold induction at 10 µM of the first is lower: 0.94 for the first, 1.09 for the second.

Compared with `CCC1CCc2c(n(Cc3cccc(C(N)=O)c3)c3c(C(=O)O)cccc23)C1` (centres unmarked) [9-[(3-carbamoylphenyl)methyl]-2-ethyl-2,3,4,9-tetrahydro-1H-carbazole-8-carboxylic acid], `CCC1CCc2c(c3cccc(C(=O)O)c3n2Cc2cccc(C(N)=O)c2)C1` (centres unmarked) [9-[(3-carbamoylphenyl)methyl]-3-ethyl-2,3,4,9-tetrahydro-1H-carbazole-8-carboxylic acid] is higher in fold induction at 10 µM: 1.06 for the first, 1.1 for the second.

`CCCCCCC1CCc2c(n(Cc3cccc(C(N)=O)c3)c3c(C(=O)O)cccc23)C1` (centres unmarked) [9-[(3-carbamoylphenyl)methyl]-2-hexyl-2,3,4,9-tetrahydro-1H-carbazole-8-carboxylic acid] and `CCCCCC1CCc2c(n(Cc3cccc(C(N)=O)c3)c3c(C(=O)O)cccc23)C1` (centres unmarked) [9-[(3-carbamoylphenyl)methyl]-2-pentyl-2,3,4,9-tetrahydro-1H-carbazole-8-carboxylic acid] are the same in fold induction at 10 µM: 1.13 for the first, 1.13 for the second.

Compared with `CCCC1CCc2c(n(Cc3cccc(C(N)=O)c3)c3c(C(=O)O)cccc23)C1` (centres unmarked) [9-[(3-carbamoylphenyl)methyl]-2-propyl-2,3,4,9-tetrahydro-1H-carbazole-8-carboxylic acid], `CCCC1CCc2c(c3cccc(C(=O)O)c3n2Cc2cccc(C(N)=O)c2)C1` (centres unmarked) [9-[(3-carbamoylphenyl)methyl]-3-propyl-2,3,4,9-tetrahydro-1H-carbazole-8-carboxylic acid] is higher in fold induction at 10 µM: 1.09 for the first, 1.1 for the second.

First: CCCCCC1CCc2c(c3cccc(C(=O)O)c3n2Cc2cccc(C(N)=O)c2)C1 (centres unmarked) [9-[(3-carbamoylphenyl)methyl]-3-pentyl-2,3,4,9-tetrahydro-1H-carbazole-8-carboxylic acid]
Second: CCCCCC1CCc2c(c3cccc(C(=O)O)c3n2Cc2cccc(C#N)c2)C1 (centres unmarked) [9-[(3-cyanophenyl)methyl]-3-pentyl-2,3,4,9-tetrahydro-1H-carbazole-8-carboxylic acid]
The fold induction at 10 µM of the first is lower: 1.08 for the first, 1.17 for the second.

Compared with `CCC1CCCc2c1c1cccc(C(=O)O)c1n2Cc1cccc(C(N)=O)c1` (centres unmarked) [9-[(3-carbamoylphenyl)methyl]-4-ethyl-2,3,4,9-tetrahydro-1H-carbazole-8-carboxylic acid], `CCCC1CCCc2c1c1cccc(C(=O)O)c1n2Cc1cccc(C(N)=O)c1` (centres unmarked) [9-[(3-carbamoylphenyl)methyl]-4-propyl-2,3,4,9-tetrahydro-1H-carbazole-8-carboxylic acid] is lower in fold induction at 10 µM: 1.21 for the first, 1.04 for the second.

Compared with `CCCCCC1CCCc2c1c1cccc(C(=O)O)c1n2Cc1cccc(C(N)=O)c1` (centres unmarked) [9-[(3-carbamoylphenyl)methyl]-4-pentyl-2,3,4,9-tetrahydro-1H-carbazole-8-carboxylic acid], `CCCCCC1CCCc2c1c1cccc(C(=O)O)c1n2Cc1cccc(C#N)c1` (centres unmarked) [9-[(3-cyanophenyl)methyl]-4-pentyl-2,3,4,9-tetrahydro-1H-carbazole-8-carboxylic acid] is higher in fold induction at 10 µM: 1.12 for the first, 1.13 for the second.

First: CCC1CCc2c(n(Cc3cccc(C(=O)O)c3)c3c(C(=O)O)cccc23)C1 (centres unmarked) [9-[(3-carboxyphenyl)methyl]-2-ethyl-2,3,4,9-tetrahydro-1H-carbazole-8-carboxylic acid]
Second: CCC1CCCc2c1c1cccc(C(=O)O)c1n2Cc1cccc(C(=O)O)c1 (centres unmarked) [9-[(3-carboxyphenyl)methyl]-4-ethyl-2,3,4,9-tetrahydro-1H-carbazole-8-carboxylic acid]
The fold induction at 10 µM of the first is higher: 1.11 for the first, 1.06 for the second.

First: CCCCCOC1CCCc2c1n(Cc1cccc(C#N)c1)c1c(C(=O)O)cccc21 (centres unmarked) [9-[(3-cyanophenyl)methyl]-1-(pentyloxy)-2,3,4,9-tetrahydro-1H-carbazole-8-carboxylic acid]
Second: CCC1CCCc2c1n(Cc1cccc(C#N)c1)c1c(C(=O)O)cccc21 (centres unmarked) [9-[(3-cyanophenyl)methyl]-1-ethyl-2,3,4,9-tetrahydro-1H-carbazole-8-carboxylic acid]
The fold induction at 10 µM of the first is higher: 1.19 for the first, 1.11 for the second.

Going from `CCCC1CCc2c(n(Cc3cccc(C#N)c3)c3c(C(=O)O)cccc23)C1` (centres unmarked) [9-[(3-cyanophenyl)methyl]-2-propyl-2,3,4,9-tetrahydro-1H-carbazole-8-carboxylic acid] to `CCCC1CCc2c(c3cccc(C(=O)O)c3n2Cc2cccc(C#N)c2)C1` (centres unmarked) [9-[(3-cyanophenyl)methyl]-3-propyl-2,3,4,9-tetrahydro-1H-carbazole-8-carboxylic acid], the fold induction at 10 µM falls from 1.21 to 1.2.

Compared with `CCC1CCc2c(c3cccc(C(=O)O)c3n2Cc2cccc(C#N)c2)C1` (centres unmarked) [9-[(3-cyanophenyl)methyl]-3-ethyl-2,3,4,9-tetrahydro-1H-carbazole-8-carboxylic acid], `N#Cc1cccc(Cn2c3c(c4cccc(C(=O)O)c42)C(CCc2ccccc2)CCC3)c1` (centres unmarked) [9-[(3-cyanophenyl)methyl]-4-(2-phenylethyl)-2,3,4,9-tetrahydro-1H-carbazole-8-carboxylic acid] is higher in fold induction at 10 µM: 1.08 for the first, 1.1 for the second.
